The test system of experiment [1] is 4T1 cells. The experiment can be described thus: In vivo inhibition of breast tumor growth (4T1 breast cancer model). To be noted: BALB/c mice injected with 4T1 cells, treated every three days; compared with saline control; FIG. 8. The procedure:
To evaluate the efficacy of diMT-OXA(IV)-PEG 2000 nanoconjugate in inhibiting tumor growth in vivo, a model of animal with breast cancer was established. 4T1 cells were injected intravenously in BALB/c mice. 4T1 cells spontaneously generate tumors in BALB/c mice, and the characteristics of these tumors are very similar to breast cancer in humans. The BALB/c mice injected with 4T1 cells were treated every three days with free OXA, free 1-MT, free 1-MT plus OXA, and diMT-OXA(IV)-PEG 2000 nanoconjugate, and were treated with saline as control. After the course of treatment, tumor masses were collected from the experimental mice to measure tumor volume to assess general anti-tumor effects (see […]). It can be learned from FIG. 8 that the tumor volume is reduced in mice treated with free OXA, free 1-MT, and free 1-MT plus OXA, and the tumor volume is reduced in mice treated with diMT-OXA(IV)-PEG 2000 nanoconjugate to more than about 50% of that in mice treated with saline as control.

Experiment [2] deals with 4T1 cells. The experiment can be described thus: In vitro anti-tumor viability test (CCK-8). The experiment is classed as cell-based. The note with it: different concentrations, 48 h, CCK-8, absorbance at 450 nm; FIG. 10. As to the method: 4T1 cells were incubated in a 96-well plate (8000 cells/well) with a volume of 100 μL per well. After the incubation, the 96-well plate was placed in an incubator to culture at 37° C. under 5% CO2 overnight. 100 μL of free OXA and diMT-OXA(IV)-PEG 2000 nanoconjugate (in different concentrations) were added. After culture in the incubator at 37° C. under 5% CO2 for 48 h, 10 μL of CCK-8 solution was added into each well and then cultured in the incubator at 37° C. under 5% CO2 for 2 h. The absorbance was measured at 450 nm by an ELISA reader, and the cell viability was calculated.

SMILES strings stand for the structures.

With `Cn1cc(C[C@@H](N)C(=O)O)c2ccccc21` [free 1-MT, 1-methyl-D-tryptophan], the tumor volume entry in experiment [1] is given as “reduced”.
Consider `O=C1[O][Pt]2([NH][C@@H]3CCCC[C@H]3[NH]2)[O]C1=O` [free OXA, oxaliplatin], for which the tumor volume entry in experiment [1] is “reduced”. Besides, the “inhibitory effect on the proliferation of 4T1 cells (cell viability)” value in experiment [2] is “good inhibitory effect”.

The values above are taken from patent publication US12527872B2, “PEGylated ICD inducer-IDO inhibitor nanoconjugate, and preparation method and use thereof” (SHANDONG UNIVERSITY, priority 2019, dated 2026).
